Data: US11254657B2, “Plinabulin compositions” (priority 2015, dated 2022)
Entries after “also recorded” stand apart in the source; their conditions may differ. Where two headings read alike, the source gives them in different places.

Legend:
Assay type in all cases: physicochemical
[1] = Dissolution in kolliphor (40% wt) and propylene glycol (60% wt); settings: mixture of kolliphor (40% wt) and propylene glycol (60% wt)
Experimental: A batch of plinabulin having a KF analysis of about 3.1% for water content was added to a mixture of kolliphor (40% wt) and propylene glycol (60% wt). […] The batch was reprocessed according to the steps described in FIG. 29 to form the plinabulin monohydrate (Form 1).

[2] = Dynamic Vapor Sorption (DVS) test
Experimental: The DSC data were collected using a TA Instruments Q10 DSC. Typically, samples (˜2 mg) were placed in hermetic alodined aluminum sample pans and scanned from 30 to 300° C. at a rate of 10° C./min under a nitrogen purge of 50 mL/min. The TGA data were collected using a TA Instruments TGA Q500. Typically, samples (˜10 mg) were placed in an open, pre-tared aluminum sample pan and scanned from 30 to 300° C. at a rate of 10° C./min using a nitrogen purge at 60 mL/min. The X-ray powder diffraction patterns were obtained using a Bruker D8 Advance equipped with a Cu Ku radiation source ([…]), a 9-position sample holder and a LYNXEYE Super Speed Detector. Typically, the duration of each scan was 180 seconds and the 2θ range was 4 to 40°. Samples were placed on zero-background, silicon plate holders. Samples were analyzed using an Aquadyne DVS-2 gravimetric water sorption analyzer. The relative humidity was adjusted between 2-95% and the weight of sample was continuously monitored and recorded.
A DVS experiment was run on the plinabulin monohydrate (Form 1). The sample gained ˜0.1% mass at 95% RH which was lost on drying to 0% RH without hysteresis. […] The XRPD pattern of the pre-DVS sample (Form 1 plinabulin monohydrate) overlays with the XRPD patterns of the post-DVS sample (Form 1 plinabulin monohydrate).

[3] = Gravimetric solubility measurement in solvents; settings: for solubility at 3 days: thermodynamic from solid, slurried 3 days
Experimental: A plinabulin compound was slurried in 15 different solvents/solvent mixtures as shown in Table 9 at 15° C. and 45° C. for 3 days for gravimetric solubility measurement. About 70 mg of solid was added to a vial for each experiment followed by addition of 0.7 mL of the respective solvents. Next, the slurry was centrifuged and the supernatant was added to pre-weighed vials and evaporated to dryness under vacuum. The vials with remaining solids were weighed again to calculate the solubility. […]

[4] = Drying study in vacuum oven at 50° C.; settings: overnight and over the weekend
Experimental: A sample of plinabulin monohydrate (Form 1) was placed in a vacuum oven at 50° C. overnight and over the weekend.

[5] = High humidity exposure stability; settings: >95% RH for 13 days
Text: Form 1 was also stable under various humidity conditions. On the other hand, the crystalline forms converted to Form I monohydrate when exposed to moisture.

[6] = Karl Fischer moisture level on extended drying and humid exposure
Experimental: Analysis by KF after drying at 45° C. under vacuum for an additional 70 hours indicated the moisture level had decreased to 4.1%. […] This sample was placed in a glove bag in an open container with an open container of water and the moisture level monitored. After 4 hours the moisture level was measured as 5.0%. After 18.5 hours the moisture level was measured as 4.8% and after 51 hours the KF result was 4.9%.
A sample of plinabulin compound (4.92 g) was stirred in ethanol (147.6 g) and heated to reflux (fully soluble at 75° C.). The solution was then allowed to cool and monitored for precipitation. A precipitate was observed when the solution was at 48° C. The mixture was re-heated to reflux providing a clear yellow solution. To the hot solution was added 295 g of water (approximately twice the mass of ethanol) allowing the mixture to cool during the addition. A precipitate was observed after charging approximately 150 mL of water with the temperature at 48° C. This solution was allowed to cool to room temperature. The solids were filtered and washed three times with 20 g of water. The solid was dried at 40-45° C. for 2.5 days to give 4.82 g, 98.0% recovery. […] Analysis by KF after drying at 45° C. under vacuum for an additional 70 hours indicated the moisture level had decreased to 4.4%. The XRPD of this sample indicates it was essentially unchanged, a mixture of Forms 1 and 3 with additional peaks (at around 12.26°, 15.19° and 28.79° 2θ degrees). This sample was placed in a glove bag in an open container with an open container of water and the moisture level monitored. After 4 hours the moisture level was measured as 5.0%. After 18.5 hours the moisture level was measured as 4.9% and after 51 hours the KF result was 5.1%.

[7] = listed as plinabulin monohydrate (Form 1)

With `CC(C)(C)c1[nH]cnc1/C=c1\[nH]c(=O)/c(=C/c2ccccc2)[nH]c1=O` [Form 3] the “dissolution in diluent mixture” value ([1]; listed as anhydrous plinabulin (Form 3)) was “insoluble particles”, the “post-DVS sample versus pre-DVS sample by XRPD” value [2] was “differed from the pre-DVS sample” and the “mass lost in DVS” value ([2]; at 90% RH) was “about 0.2%”.

For `CC(C)(C)c1[nH]cnc1/C=c1\[nH]c(=O)/c(=C/c2ccccc2)[nH]c1=O` [plinabulin compound, (3Z,6Z)-3-Benzylidene-6-{[5-(2-methyl-2-propanyl)-1H-imidazol-4-yl]methylene}-2,5-piperazinedione], the “solubility (in words)” value ([3]; THF) was “highly soluble”.

With `CC(C)(C)c1[nH]cnc1/C=c1\[nH]c(=O)/c(=C/c2ccccc2)[nH]c1=O` [plinabulin monohydrate, (3Z,6Z)-3-Benzylidene-6-{[5-(2-methyl-2-propanyl)-1H-imidazol-4-yl]methylene}-2,5-piperazinedione] the solubility at 3 days ([3]; organic solvent or mixture, ACN, 15° C., read-out: Solubility at 15° C.) was 3000 µg/mL, the solubility at 3 days ([3]; organic solvent or mixture, ACN, 45° C., read-out: Solubility at 45° C.) was 7000 µg/mL and the solubility at 3 days ([3]; organic solvent or mixture, Acetone:water (95:5), 15° C., read-out: Solubility at 15° C.) was 6000 µg/mL. It also gave a solubility at 3 days ([3]; organic solvent or mixture, Acetone:water (95:5), 45° C., read-out: Solubility at 45° C.) of 16000 µg/mL, a solubility at 3 days ([3]; organic solvent or mixture, Acetone, 15° C., read-out: Solubility at 15° C.) of 11000 µg/mL and a solubility at 3 days ([3]; organic solvent or mixture, Acetone, 45° C., read-out: Solubility at 45° C.) of 20000 µg/mL. For the same compound, the solubility at 3 days ([3]; organic solvent or mixture, DCM, 15° C., read-out: Solubility at 15° C.) was 2000 µg/mL, the solubility at 3 days ([3]; organic solvent or mixture, EtOAc, 15° C., read-out: Solubility at 15° C.) was 3000 µg/mL and the solubility at 3 days ([3]; organic solvent or mixture, EtOAc, 45° C., read-out: Solubility at 45° C.) was 8000 µg/mL. It also gave a solubility at 3 days ([3]; organic solvent or mixture, EtOH:water (95:5), 15° C., read-out: Solubility at 15° C.) of 4000 µg/mL, a solubility at 3 days ([3]; organic solvent or mixture, EtOH:water (95:5), 45° C., read-out: Solubility at 45° C.) of 13000 µg/mL and a solubility at 3 days ([3]; organic solvent or mixture, EtOH, 15° C., read-out: Solubility at 15° C.) of 5000 µg/mL. It also gave a solubility at 3 days ([3]; organic solvent or mixture, EtOH, 45° C., read-out: Solubility at 45° C.) of 13000 µg/mL, a solubility at 3 days ([3]; organic solvent or mixture, Heptane, 15° C., read-out: Solubility at 15° C.) of under 1000 µg/mL and a solubility at 3 days ([3]; organic solvent or mixture, Heptane, 45° C., read-out: Solubility at 45° C.) of 3000 µg/mL. The solubility at 3 days ([3]; organic solvent or mixture, IPA, 15° C., read-out: Solubility at 15° C.) was 1000 µg/mL, the solubility at 3 days ([3]; organic solvent or mixture, IPA, 45° C., read-out: Solubility at 45° C.) was 7000 µg/mL and the solubility at 3 days ([3]; organic solvent or mixture, MEK, 15° C., read-out: Solubility at 15° C.) was 11000 µg/mL. The solubility at 3 days ([3]; organic solvent or mixture, MEK, 45° C., read-out: Solubility at 45° C.) was 23000 µg/mL, the solubility at 3 days ([3]; organic solvent or mixture, MTBE, 15° C., read-out: Solubility at 15° C.) was under 1000 µg/mL and the solubility at 3 days ([3]; organic solvent or mixture, MTBE, 45° C., read-out: Solubility at 45° C.) was 5000 µg/mL. For the same compound, the solubility at 3 days ([3]; organic solvent or mixture, MeOH, 15° C., read-out: Solubility at 15° C.) was 5000 µg/mL, the solubility at 3 days ([3]; organic solvent or mixture, MeOH, 45° C., read-out: Solubility at 45° C.) was 13000 µg/mL and the solubility at 3 days ([3]; organic solvent or mixture, THF, 15° C., read-out: Solubility at 15° C.) was 40000 µg/mL. It also gave a solubility at 3 days ([3]; organic solvent or mixture, THF, 45° C., read-out: Solubility at 45° C.) of 96000 µg/mL, a solubility at 3 days ([3]; organic solvent or mixture, Toluene, 15° C., read-out: Solubility at 15° C.) of 1000 µg/mL and a solubility at 3 days ([3]; organic solvent or mixture, Toluene, 45° C., read-out: Solubility at 45° C.) of 7000 µg/mL. For the same compound, the solubility at 3 days ([3]; Water, 15° C., read-out: Solubility at 15° C.) was under 1000 µg/mL, the solubility at 3 days ([3]; Water, 45° C., read-out: Solubility at 45° C.) was under 1000 µg/mL and the “dissolution in diluent mixture” value [1, 7] was “dissolved completely”. For the same compound, the “stability during the DVS and drying tests (in words)” value [2] was “remained stable”, the “mass gained in DVS” value ([2]; at 95% RH) was about 0.1% and the “post-DVS sample versus pre-DVS sample by XRPD” value [2, 7] was “no transformation had taken place”. For the same compound, the “change in weight during drying” value [4] was “no change in weight”, the stability on drying [4, 7] was “stable to drying; also recorded: remained stable” and the “stability in high humidity environment” value ([5]; listed as form 1) was “no change in solid form”. The “stability in high humidity environment” value [5, 7] was “no change in solid form; also recorded: remained stable with no change in mass”, the “moisture level (KF)” value ([6]; after drying at 45° C. under vacuum for an additional 70 hours) was 4.1% and the “moisture level (KF)” value ([6]; dried sample in glove bag with open container of water, after 4 hours) was 5.0%. The “moisture level (KF)” value ([6]; dried sample in glove bag with open container of water, after 18.5 hours) was 4.8% and the “moisture level (KF)” value ([6]; dried sample in glove bag with open container of water, after 51 hours) was 4.9%.
